This is an account of results in publication PMC6272185 (Molecules, 2015).

The test system of data set [1] is TNF-α production by LPS-stimulated RAW 264.7 macrophages. In words: Inhibition of TNF-α production by LPS-stimulated macrophages (ELISA). It counts as cell-based, murine. To be noted: Mus musculus, read-out: IC50 TNF-α. (In general: ELISA stands for enzyme-linked immunosorbent assay.)
Data set [2] can be described thus: Macrophage cytotoxicity, LDH release assay. It counts as cell-based, murine. The conditions noted are these: mouse, RAW 264.7 macrophages stimulated with LPS; LPS-stimulated RAW 264.7, LDH release; mean ± SD, n = 3. On the technique in general: LDH leaks from cells whose membrane has failed.
Experimental: Cytotoxic effects of chalcone samples on RAW 264.7 cell viability in cultures stimulated with LPS were determined using the LDH (lactate dehydrogenase) release assay as previously described [58]. Cytoplasmic enzyme LDH release into cell culture supernatants was detected using a commercial LDH kit (Doles, GO, Brazil). Cell death was expressed as percentage of LDH release, which was calculated using the following formula: percentage of LDH release = 100 × (test LDH release − spontaneous release)/(maximum release − spontaneous release). The maximum release was determined following dissolution of cell monolayers using 1% (vol/vol) Triton X-100. The spontaneous release was determined in supernatants from cultures incubated in the presence of LPS and DMSO, used as a solvent for chalcone samples.
The test system of data set [3] is NO production by LPS-stimulated RAW 264.7 macrophages. The data set is described as follows: Inhibition of NO production by LPS-stimulated macrophages (Griess). In kind it is cell-based, murine. The conditions noted are these: Mus musculus, RAW264.7, 24 h, mean ± SD, n = 3. Background: The Griess reaction detects nitrite, a stable product of nitric oxide.
Data set [4] concerns M. bovis BCG. The data set is described as follows: microbe, parasite or virus in culture. In kind it is cell-based, Mycobacterium bovis BCG. To be noted: Mycobacterium tuberculosis variant bovis BCG, BCG, 168 h; for MIC50: read-out: MIC50 M. bovis BCG; for MIC90: read-out: MIC90 M. bovis BCG.
The mark [5] stands for this setting: RAW264.7, LPS (1 µg/mL)-stimulated RAW 264.7, 24 h, mean ± SD, n = 3.
[6] abbreviates: LPS (1 µg/mL)-stimulated RAW 264.7, 24 h, read-out: IC50 NO.

≈ marks a conversion by molar mass, not a printed value. Structures can show the parent of a compound that is named as a salt. Where two headings read alike, the source gives them in different places.

As to `O=C(/C=C/c1ccccc1)c1ccccc1` [Chalcone 1, 1,3-diphenyl-2-propenone, reference compound], the IC50 is greater than 480 µM in data set [1] (setting [5]), 177 ± 9.5 µM in data set [2] and 41.6 ± 2 µM in data set [3] (setting [6]). The MIC50 in data set [4] was determined as 137 ± 4.7 µM (≈ 28.6 µg/mL). Moreover, in data set [4], the MIC90 is 383 ± 9.1 µM (≈ 79.8 µg/mL).
As to `COc1ccc(/C=C/C(=O)c2ccccc2)cc1` [Chalcone 6], the IC50 in data set [1] (RAW264.7, 24 h) is greater than 420 µM; in data set [2], greater than 420 µM; in data set [3] (read-out: IC50 NO, LPS (1 µg/mL)-stimulated RAW 264.7, 24 h), greater than 420 µM.
In the case of `COc1ccc(/C=C/C(=O)c2ccc(Br)cc2)cc1` [Chalcone 13], the results for the IC50 in data set [1] (setting [5]), in data set [2] and in data set [3] (setting [6]) were greater than 315 µM, greater than 315 µM and 52.9 ± 3.6 µM, respectively. In data set [4], the MIC50 stood at 221 ± 3.6 µM (≈ 70 µg/mL). Also, the MIC90 in data set [4] was greater than 315 µM.
Turning to `COc1ccc(/C=C/C(=O)c2ccc(Br)cc2)cc1OC` [Chalcone 14], the IC50 in data set [1] (setting [5]) was greater than 288 µM; in data set [2], greater than 288 µM; in data set [3] (setting [6]), 58.9 ± 6.8 µM. For the same molecule, the MIC50 in data set [4] is greater than 288 µM. In data set [4], the MIC90 was greater than 288 µM.
As for `Cc1ccc(C(=O)/C=C/c2ccccc2)cc1` [Chalcone 16], the IC50 in data set [1] (setting [5]), in data set [2] and in data set [3] (setting [6]) was greater than 450 µM throughout. Moreover, in data set [4], the MIC50 is greater than 450 µM. The MIC90 in data set [4] was greater than 450 µM.
With `Cc1ccc(C(=O)/C=C/c2ccc(Cl)cc2)cc1` [Chalcone 18], the IC50 was greater than 390 µM in data set [1] (setting [5]), 304 ± 4.2 µM in data set [2] and 150 ± 3.8 µM in data set [3] (setting [6]). Besides, the MIC50 in data set [4] is 71.3 ± 4.8 µM (≈ 18.3 µg/mL). Besides, the MIC90 in data set [4] worked out at 323 ± 7.1 µM (≈ 83 µg/mL).
With `COc1ccc(/C=C/C(=O)c2ccc(C)cc2)cc1OC` [Chalcone 22], the IC50 in data set [1] (setting [5]), in data set [2] and in data set [3] (setting [6]) was greater than 354 µM each time. Also, the MIC50 in data set [4] was greater than 354 µM. Further, in data set [4], the MIC90 is greater than 354 µM.
Consider `Cc1ccc(C(=O)/C=C/c2ccccc2Cl)cc1` [Chalcone 23], for which the IC50 in data set [1] (setting [5]), in data set [2] and in data set [3] (setting [6]) was greater than 390 µM each time. For the same molecule, the MIC50 in data set [4] is greater than 390 µM. In data set [4], the MIC90 was greater than 390 µM.
With `COc1ccc(C(=O)/C=C/c2ccc(N(C)C)cc2)cc1` [Chalcone 27], the IC50 in data set [1] (setting [5]) was greater than 355 µM; in data set [2], 226 ± 3.5 µM; in data set [3] (setting [6]), 44.6 ± 5.2 µM. Also, the MIC50 in data set [4] is 309 ± 5 µM (≈ 86.9 µg/mL). Moreover, the MIC90 in data set [4] is greater than 355 µM.
Regarding `O=C(/C=C/c1ccc(F)cc1)c1ccccc1Cl` [Chalcone 32], the IC50 in data set [1] (setting [5]), in data set [2] and in data set [3] (setting [6]) was greater than 384 µM throughout. Also, in data set [4], the MIC50 is greater than 384 µM. Further, the MIC90 in data set [4] was greater than 384 µM.
As to `COc1ccc(/C=C/C(=O)c2ccccc2Cl)cc1` [Chalcone 34], the IC50 in data set [1] (setting [5]), in data set [2] and in data set [3] (setting [6]) was greater than 367 µM in each case. For the same molecule, the MIC50 in data set [4] is greater than 367 µM. In addition, the MIC90 in data set [4] is greater than 367 µM.
As to `O=C(/C=C/c1ccc2c(c1)OCO2)c1ccccc1Cl` [Chalcone 35], the IC50 in data set [1] (setting [5]) was greater than 349 µM; in data set [2], greater than 349 µM; in data set [3] (setting [6]), 160 ± 4.7 µM. Also, the MIC50 in data set [4] is greater than 349 µM. The MIC90 in data set [4] was greater than 349 µM.
Turning to `COc1ccc(/C=C/C(=O)c2ccccc2Cl)cc1OC` [Chalcone 36], the IC50 in data set [1] (setting [5]) is greater than 330 µM; in data set [2] it was greater than 330 µM; in data set [3] (setting [6]) it was 188 ± 4.1 µM. Moreover, the MIC50 in data set [4] was determined as 270 ± 3.9 µM (≈ 81.6 µg/mL). The MIC90 in data set [4] was greater than 330 µM.
As for `O=C(/C=C/c1ccc([N+](=O)[O-])cc1)c1ccc(Br)cc1` [Chalcone 38], the IC50 in data set [1] (setting [5]), in data set [2] and in data set [3] (setting [6]) was greater than 301 µM in each case. Besides, the MIC50 in data set [4] worked out at 97.4 ± 4.2 µM (≈ 32.4 µg/mL). For the same molecule, in data set [4], the MIC90 came to 221 ± 5.6 µM (≈ 73.3 µg/mL).
Consider `[H]/N=C(/NC)NCCC[C@H](N)C(=O)O` [L-NMMA, N^G-Monomethyl-L-arginine acetate salt, reference compound], for which, in data set [3] (setting [6]), the IC50 worked out at 78.3 ± 6.5 µM.
